In patent US20100151004A1, “MODULATION OF DRUG SENSITIVITY” (UNIVERSITY OF MEDICINE AND DENTISTRY OF NEW JERSEY, priority 2007, published 2010):
“Also recorded” adds a separate entry of the source.

Assays:
HCT-8/4hFU cells [1] = assay: MTS cytotoxicity assay, 4 h bolus drug exposure; format: cell-based, human
Description: Cancer Res 1992 Apr. […] Louis, Mo., USA).

HCT-8/4hFU cells [2] = assay: MTS cytotoxicity assay, continuous 5-FU exposure (4 days); format: cell-based, human
Protocol: Number of viable cells was determined by MTS assay.

HCT-8/4hFU tumor = assay: Colorectal cancer xenograft model, tumor volume; format: in vivo, mice; conditions: for tumor response (tumor volume): one course, DAC 3×0.5 mg/kg i.p., 5-FU 1×50 mg/kg i.p.; for tumor response (tumor growth): two courses, DAC 3×0.5 mg/kg/course i.p., 5-FU 1×50 mg/kg/course i.p.
Protocol: (§1) Two independent experiments were performed and animals received either 1 or 2 courses of treatment (1 or 2 weeks) followed by an additional week of observation. […] Prior to the experiment tumors were grounded to a powder in LN2. Following the tumor harvest or if tumor diameter is greater than 1 cm, or greater than 15% weight loss occurred the animals were euthanized. All experiments were performed according to the protocol approved by The Institutional Animal Care and Use Committee at RWJMS. […] Gels were quantitated using ChemiDoc XRS machine and Quantity One 1-D analysis software (BioRad, Hercules, Calif., USA).

HCT-8/P tumor = assay: Colorectal cancer xenograft model, tumor volume; format: in vivo, mice
Protocol: as §1

colorectal cancer = conditions: patients, typical clinical response; cited from earlier work
[3] = system: UMPK expression in HCT-8/4hFU cells; assay: UMPK mRNA (Q-RT-PCR) and protein (Western blotting) after DAC exposure in cultured cells; format: cell-based, human; conditions: low-dose DAC for 24 h
Protocol: (§2) Cells (1-5×10^6) were trypsinized, washed twice with PBS and kept frozen in −80° C. until used. Cell pellets or powdered tumors (vide infra) were thawed and resuspended in 0.5 ml of RIPA buffer (50 mM Tris-HCl buffer pH 7.4, 3 mM sodium fluoride and 4 mM DTT) supplemented with protease inhibitors. Samples were sonicated (2×20 s, 60% power) on ice and centrifuged for 20 min at 20,000 rpm. […] of lysate was loaded onto 10% SDS-PAGE gel and after transfer to nitrocellulose probed with anti-UMPK polyclonal antibody (1:1000) for 2 hours (gift of Dr Y. C. Cheng, Yale University) and secondary ant-rabbit antibody (1:5000) for 1 hour (Sigma St Louis, Mo., USA) or anti-α-tubulin (1:10000) for 1 hour (Sigma, St Louis, Mo., USA) and anti-mouse antibody (1:2000) for 0.5 h (Santa Cruz, Calif., USA) as a control.
(§3) Total RNA was extracted from 1-5×10^6 cells or powdered tumors using Trizol Reagent (Invitrogen, Carlsbad, Calif., USA) and run on 1% folmaldehyde-agarose gel to assess the quality of the RNA. […] Delta delta Ct method was used to calculate relative fold change in mRNA level (Livak K J, Schmittgen T D. Analysis of relative gene expression data using real-time quantitative PCR and the 2(−Delta Delta C(T)) Method. Methods 2001 December; 25(4):402-8). […]

[4] = system: UMPK expression in HCT-8/P cells; assay: UMPK expression after DAC exposure in cultured cells; format: cell-based, human; conditions: low-dose DAC for 24 h
Protocol: as §2, §3

UMPK in HCT-8/P tumors = assay: UMPK mRNA in xenograft tumors after DAC treatment (Q-RT-PCR); format: in vivo, mice; conditions: HCT-8/P group
Protocol: (§4) Total RNA was extracted from 1-5×10^6 cells or powdered tumors using Trizol Reagent (Invitrogen, Carlsbad, Calif., USA) and run on 1% folmaldehyde-agarose gel to assess the quality of the RNA. Gene specific primers and fluorescent-labeled probe (FAM and TAMRA) were designed using Primer Express Software from ABI (Applied Biosystems, Foster City, Calif., USA). 50 ng of RNA was amplified in one-step RT-PCR reaction (Applied Biosystems, Foster City, Calif., USA) using TaqMan Real-Time PCR machine (7000 SDS). 18SrRNA (FAM) (Applied Biosystems, Foster City, Calif., USA) or β-actin (FAM-TAMRA) was used to normalize the results. Delta delta Ct method was used to calculate relative fold change in mRNA level (Livak K J, Schmittgen T D. Analysis of relative gene expression data using real-time quantitative PCR and the 2(−Delta Delta C(T)) Method. Methods 2001 December; 25(4):402-8). The sequence of UMPK forward primer is 5′-AAGAAGGAAAGATTGTACCAGTTGAGA-3′ (SEQ ID NO: 7), reverse primer 5′-GGAAACCCATCAATCAAGAATTTATT-3′ (SEQ ID NO: 8), and probe 5-FAM-AGAGGGAAATGGATCAGACAATGGCTGC-TAMRA-3′ (SEQ ID NO: 9).
(§5) HCT-8/P or HCT-8/4hFU cells (2.5×10^6) were injected subcutaneously into SKID nu/nu mice (Taconic, Germantown, N.Y., USA). When tumors were palpable animals were randomized into 4 groups (5-10 animals per group) and treated with DAC (Tuesday, Wednesday, Thursday, 0.5 mg/kg, i.p.), or 5-FU (Friday, 50 mg/kg, i.p.), or DAC & 5-FU, or PBS as a control. Measurements of tumor size and animal weight were performed every 3-4 days. Two independent experiments were performed and animals received either 1 or 2 courses of treatment (1 or 2 weeks) followed by an additional week of observation. In order to assay UMPK induction in tumors, animals from DAC alone, and DAC & 5-FU groups received additional course of DAC treatment towards the end of experiment. 24 hours after the third dose of DAC was administered animals were anesthetized, and tumors harvested, washed in PBS and flash frozen in LN2. Prior to the experiment tumors were grounded to a powder in LN2. Following the tumor harvest or if tumor diameter is greater than 1 cm, or greater than 15% weight loss occurred the animals were euthanized. All experiments were performed according to the protocol approved by The Institutional Animal Care and Use Committee at RWJMS.

[5] = system: UMPK mRNA in HCT-8/4hFU tumors; assay: as above; format: in vivo, mice
Protocol: as §4, §5

[6] = system: UMPK promoter and first exon CpG sites in HCT-8/4hFU cells; assay: Pyro Q-CpG analysis of methylation; format: cell-based, human; conditions: HCT-8/4hFU + 0.5 μM DAC for 24 h
Protocol: DNA was extracted from tumors or cells using standard phenol-chlorophorm-isoamyl alcohol extraction (Invitrogen, Carlsbad, Calif., USA). 2 μg of sample DNA or 1 μg of control DNA was bisulfite modified using EZ DNA Methylation Kit (Zymo Research, Orange, Calif., USA). 1 ul out of 10 ul of post bisulfite modified DNA was used for PCR. Bisulfite treated fetal cell DNA and in vitro methylated human DNA (Chemicon, Millipore, Billerica, Mass.) were used in the assay development and PCR bias testing. The following reagents were mixed together in preparation for the Pyrosequencing reaction: Streptavidin beads 2 μl, 2× binding buffer 40 μl, PCR product 10 μl, water 28 μl. The assay was performed by EpigenDx (Worcester, Mass., USA) using PSQHS 96 System. Methylation of 42 CpG sites was analyzed.

HCT-8/P cells = assay: MTS cytotoxicity assay, 4 h bolus drug exposure
[7] = one course, DAC 3×0.5 mg/kg i.p., 5-FU 1×50 mg/kg i.p.
[8] = two courses, DAC 3×0.5 mg/kg/course i.p., 5-FU 1×50 mg/kg/course i.p.
[9] = DAC 0.0005 μM-0.5 μM, 24 h exposure

O=c1[nH]cc(F)c(=O)[nH]1 [5-FU, 5-Fluorouracil]
fold resistance to bolus 5-FU, HCT-8/4hFU versus HCT-8/P (HCT-8/4hFU cells [1]; bolus 4 h exposure, cell viability assay): 3-4 fold
sensitivity to continuous exposure to 5-FU, HCT-8/4hFU versus HCT-8/P (HCT-8/4hFU cells [2]): equally sensitive
tumor response (tumor volume) (HCT-8/4hFU tumor): resistant
tumor response (tumor growth) (HCT-8/4hFU tumor): partial response
tumor response (tumor growth) (HCT-8/P tumor; [7]): responded
tumor response (tumor growth) (HCT-8/P tumor; [8]): responded
response rate (colorectal cancer): less than 30%

O=c1[nH]c(=O)n([C@@H]2O[C@H](CO)[C@@H](O)[C@H]2O)cc1F [5-FUR, 5-fluorouridine]
increase in the IC50 value, HCT-8/4hFU as compared to HCT-8/P cells (HCT-8/4hFU cells [1]; 5-FUR 4 h exposure): ≤ 10 fold

Nc1ncn([C@H]2C[C@H](O)[C@@H](CO)O2)c(=O)n1 [DAC, 5-Azadeoxycytidine]
restoration of sensitivity of HCT-8/4hFU cells to that seen in HCT-8/P cells (HCT-8/4hFU cells [1]; 0.02 μM DAC 24 h pretreatment): able to restore the sensitivity
cell kill (HCT-8/4hFU cells [1]; [9]): less than 20%
effect of DAC pretreatment on sensitivity to bolus 5-FU (HCT-8/4hFU cells [1]; DAC 24 h pretreatment, then 5-FU 4 h): makes HCT-8/4hFU cells sensitive
effect of DAC pretreatment on sensitivity to 5-FUR (HCT-8/4hFU cells [1]; DAC 24 h pretreatment, then 5-FUR 4 h): makes HCT-8/4hFU cells sensitive
tumor response (tumor volume) (HCT-8/4hFU tumor): resistant
tumor response (tumor growth) (HCT-8/4hFU tumor): No significant response
tumor response (tumor growth) (HCT-8/P tumor; [7]): most significant delay in the tumor growth
tumor response (tumor growth) (HCT-8/P tumor; [8]): most significant effect
UMPK mRNA as well as protein levels [3]: dose dependent increase
UMPK expression [4]: No increase
increase of UMPK after DAC treatment (UMPK in HCT-8/P tumors): No increase
increase in UMPK mRNA as compared to untreated tumor ([5]; after one course of DAC (3×0.5 mg/kg)): 4 fold
increase in UMPK mRNA as compared to untreated tumor ([5]; after two and three weeks of DAC treatment): ≤ 20 fold
average increase of UMPK in tumors of the group of animals ([5]; animals of the two-course experiment, relative to untreated HCT-8/4hFU tumors): 8.5 fold
Mean methylation across 36 CpG sites [6]: 2.74
cell kill (HCT-8/P cells; [9]): less than 20%
effect of DAC on sensitivity of HCT-8/P cells to 5-FU or 5-FUR (HCT-8/P cells; DAC 24 h pretreatment, then 5-FU or 5-FUR 4 h): Much less of an effect; also recorded: do not show increased sensitivity
